In PubChem BioAssay (NCI):
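How tested: cells in 96-well plates exposed to compound for 48 hours at five concentrations. The concentration for full growth arrest is given as TGI.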

How the values were obtained:
Assay in all cases: NCI-60 cell line screen, 48 h
[1] = system: HCT-116 colon
[2] = system: SK-MEL-5 melanoma
[3] = system: EKVX NSCLC
[4] = system: MDA-N
[5] = system: SK-MEL-2 melanoma
[6] = system: UACC-257 melanoma
[7] = system: A549 NSCLC
[8] = system: MALME-3M melanoma
[9] = system: TK-10 renal
[10] = system: SW-620 colon
[11] = system: A498 renal
[12] = system: SF-539 CNS
[13] = system: HL-60(TB) leukemia
[14] = system: COLO 205 colon
[15] = system: HCC-2998 colon
[16] = system: HS 578T breast
[17] = system: T-47D breast
[18] = system: SNB-75 CNS

| SMILES | TGI [1] [µM] | TGI [2] [µM] | TGI [3] [µM] | TGI [4] [µM] | TGI [5] [µM] | TGI [6] [µM] | TGI [7] [µM] | TGI [8] [µM] | TGI [9] [µM] | TGI [10] [µM] | TGI [11] [µM] | TGI [12] [µM] | TGI [13] [µM] | TGI [14] [µM] | TGI [15] [µM] | TGI [16] [nM] | TGI [17] [µM] | TGI [18] [µM] |
| --- | --- | --- | --- | --- | --- | --- | --- | --- | --- | --- | --- | --- | --- | --- | --- | --- | --- | --- |
| Oc1ccc(-c2nc3ccc(Cl)cc3s2)cc1 | 29.5 | 35.7 | 31 | 37.6 | 34 | 34.4 | 45.2 | 36 | 34.7 | 39.3 | 35.2 | 34.7 | 57.7 | 32.3 | – | – | – | – |
| CC(=O)C1CC[C@@H]2[C@H](CC[C@]3(C)[C@@H](O)CC[C@@H]23)[C@H]1C(=O)O (stereo not given in full) | – | > 100 | > 100 | – | > 100 | > 100 | > 100 | > 100 | > 100 | > 100 | > 100 | > 100 | > 100 | > 100 | > 100 | > 100000 | – | – |
| COc1cc(C(O)(CC#N)c2cc3c(cc2Br)OCO3)cc(OC)c1OC (stereo not given) | > 100 | – | > 100 | > 100 | > 100 | > 100 | > 100 | – | > 100 | > 100 | – | 34.9 | – | > 100 | 66.1 | – | > 100 | > 100 |
| CCCC(=O)Nc1cc(/C=C/C(=O)N2CC(CCl)c3c2cc(O)c2[nH]cc(C)c32)n(C)c1 (stereo not given) | – | < 2.5e-05 | 0.00293 | – | < 2.5e-05 | – | – | – | < 2.5e-05 | > 0.25 | – | < 2.5e-05 | – | – | – | 0.0635 | 0.00884 | < 2.5e-05 |
